# Experimental data from patent publication US20140228293A1, “PARATHYROID HORMONE ANALOGS, COMPOSITIONS AND USES THEREOF” (THE GENERAL HOSPITAL CORPORATION, priority 2011, published 2014).
# Like-named read-outs stand apart in the source and are kept apart here.
# Assay: Stability study by HPLC-MS under ambient conditions
# Type: physicochemical
# Text: High performance liquid chromatography-mass spectroscopy (HPLC-MS) was used to monitor the degradation of four synthetic compounds over a period of time.
# [1] = room temperature, air, water solution, neutral pH, HPLC-MS
degradation after 7 days (estimated based on UV signal),Substance,degradation after 7 days (estimated based on UV signal) [1]
,"[Nle^8,18]hPTH(1-37) [[Nle^8,11]hPTH(1-37)]",about 70%
less than 10%,"[Nle^8,18]hPTH(1-84) [[Nle^8,11]hPTH(1-84)]",
,hPTH(1-37) (SVSEIQLMHNLGKHLNSMERVEWLRKKLQDVHNFVAL),about 70%
